Data taken from patent US12336981B2, “Compounds and compositions for the inhibition of NAMPT” (Valo Health, Inc., priority 2010, dated 2025).
pIC50: −log10 of the molar value. Where two headings read alike, the source gives them in different places.

Assays:
A2780 cells = assay: In-vitro cell proliferation assay (SRB), A2780 cells; format: cell-based; details: Homo sapiens, A2780, 72 h, A2780 cells, 72 hours, read-out: A2780 IC50
How it was run: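 SRB read-out: 6% TCA fix 1 h at 4° C., stain, Tris solubilize, A570. Media-only background subtracted; % inhibition from two compound concentrations.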

NAMPT = molecular target: T1, NAMPT (Homo sapiens, UniProt P43490); assay: Biochemical inhibition assay: NAMPT enzymatic reaction, NMN quantified by mass spectrometry; details: read-out: Biochem IC50
T1 construct: His tag; host or cells: E. coli
T1 sequence (P43490 whole entry): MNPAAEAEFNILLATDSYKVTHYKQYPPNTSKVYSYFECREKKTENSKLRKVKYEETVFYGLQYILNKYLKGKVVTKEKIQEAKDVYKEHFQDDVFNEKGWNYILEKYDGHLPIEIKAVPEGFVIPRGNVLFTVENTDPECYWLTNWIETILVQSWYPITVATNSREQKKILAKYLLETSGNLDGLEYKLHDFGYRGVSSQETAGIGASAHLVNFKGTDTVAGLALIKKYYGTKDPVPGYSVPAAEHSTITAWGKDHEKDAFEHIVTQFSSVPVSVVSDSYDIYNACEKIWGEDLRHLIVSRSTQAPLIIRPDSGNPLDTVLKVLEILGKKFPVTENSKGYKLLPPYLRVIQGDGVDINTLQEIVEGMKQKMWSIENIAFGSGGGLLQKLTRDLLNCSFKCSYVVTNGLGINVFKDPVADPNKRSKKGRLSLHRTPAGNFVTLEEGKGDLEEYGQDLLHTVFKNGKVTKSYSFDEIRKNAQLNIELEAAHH
How it was run: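 Inhibition of E. coli-expressed His-tagged human NAMPT, measured as NMN formation by mass spectrometry after a 30 min room-temperature reaction containing 1 μM NAM, 100 μM PRPP and 2.5 mM ATP.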

| SMILES | pIC50 (A2780 cells; SRB) | pIC50 (NAMPT; NAMPT enzymatic assay) | pIC50 (NAMPT; NAMPT enzymatic reaction) | pIC50 (A2780 cells; SRB assay) |
| --- | --- | --- | --- | --- |
| O=C(NCc1ccc(S(=O)(=O)c2ccc3ncccc3c2)cc1)c1cnc2nccn2c1 [N-{[4-(quinoline-6-sulfonyl)phenyl]methyl}imidazo[1,2-a]pyrimidine-6-carboxamide] | 8.25 | 8.48 | – | – |
| CC(C)COc1ccc(S(=O)(=O)c2ccc(CNC(=O)c3cnc4[nH]ncc4c3)cc2)cc1 [N-[(4-{[4-(2-methylpropoxy)benzene]sulfonyl}phenyl)methyl]-1H-pyrazolo[3,4-b]pyridine-5-carboxamide] | 7.79 | 7.58 | – | – |
| Cn1ncc2cc(S(=O)(=O)c3ccc(CNC(=O)c4cc5ccncc5o4)cc3)ccc21 [N-{[4-(1-methyl-1H-indazole-5-sulfonyl)phenyl]methyl}furo[2,3-c]pyridine-2-carboxamide] | 8.46 | 8.48 | – | – |
| O=C(NCc1ccc(S(=O)(=O)c2cc(F)cc(N3CCCC3)c2)cc1)c1ccc2nccn2c1 | 8.66 | 8.41 | – | – |
| CCCn1cc(S(=O)(=O)c2ccc(CNC(=O)c3cc4ccncc4s3)cc2)cn1 [N-{[4-(1-propyl-1H-pyrazole-4-sulfonyl)phenyl]methyl}thieno[2,3-c]pyridine-2-carboxamide] | 8.80 | 8.72 | – | – |
| O=C(NCc1ccc(S(=O)(=O)c2cccc(N3CCCC3)c2)cc1)c1cc2ccncc2s1 | 8.60 | 8.72 | – | – |
| CCOc1ccccc1S(=O)(=O)c1ccc(CNC(=O)c2ccc3nccn3c2)cc1 [N-({4-[(2-ethoxybenzene)sulfonyl]phenyl}methyl)imidazo[1,2-a]pyridine-6-carboxamide] | 8.47 | – | 7.69 | – |
| COc1cc(C)cc(S(=O)(=O)c2ccc(CNC(=O)c3ccc4nccn4c3)cc2)c1 | 8.80 | – | 8.28 | – |
| COc1cc(S(=O)(=O)c2ccc(CNC(=O)c3cnc4[nH]ncc4c3)cc2)ccc1F [N-({4-[(4-fluoro-3-methoxybenzene)sulfonyl]phenyl}methyl)-1H-pyrazolo[3,4-b]pyridine-5-carboxamide] | 7.94 | – | 7.62 | – |
| COc1cncc(S(=O)(=O)c2ccc(CNC(=O)c3ccc4nccn4c3)cc2)c1 [N-{[4-(5-methoxypyridine-3-sulfonyl)phenyl]methyl}imidazo[1,2-a]pyridine-6-carboxamide] | 8.47 | 8.05 | – | – |
| Cc1ccc(F)cc1S(=O)(=O)c1ccc(CNC(=O)c2cc3cnccc3[nH]2)cc1 [N-({4-[(5-fluoro-2-methylbenzene)sulfonyl]phenyl}methyl)-1H-pyrrolo[3,2-c]pyridine-2-carboxamide] | – | – | 7.96 | 8.15 |
| O=C(NCc1ccc(S(=O)(=O)c2cccnc2)cc1)c1cc2ccncc2o1 [N-{[4-(pyridine-3-sulfonyl)phenyl]methyl}furo[2,3-c]pyridine-2-carboxamide] | 7.18 | 8.05 | – | – |
| CCCCOc1cc(F)ccc1S(=O)(=O)c1ccc(CNC(=O)c2cc3ccncc3s2)cc1 | 8.20 | – | 8.15 | – |
| COc1cc(C(F)(F)F)ccc1S(=O)(=O)c1ccc(CNC(=O)c2cc3ccncc3s2)cc1 [N-[(4-{[2-methoxy-4-(trifluoromethyl)benzene]sulfonyl}phenyl)methyl]thieno[2,3-c]pyridine-2-carboxamide] | 8.66 | 8.00 | 8.05 | 8.12 |
| Cc1ccc(S(=O)(=O)c2ccc(CNC(=O)c3ccc4nccn4c3)cc2)cc1C [N-({4-[(3,4-dimethylbenzene)sulfonyl]phenyl}methyl)imidazo[1,2-a]pyridine-6-carboxamide] | 8.53 | – | 7.95 | – |
| Cn1ncc2ccc(S(=O)(=O)c3ccc(CNC(=O)c4cc5ccncc5s4)cc3)cc21 [N-{[4-(1-methyl-1H-indazole-6-sulfonyl)phenyl]methyl}thieno[2,3-c]pyridine-2-carboxamide] | 8.96 | 8.64 | – | – |
| Cc1cccc(S(=O)(=O)c2ccc(CNC(=O)c3cnc4nccn4c3)cc2)c1C | 7.33 | – | 8.39 | – |
| O=C(NCc1ccc(S(=O)(=O)c2cc(F)ccc2CO)cc1)c1cc2ccncc2o1 [N-[(4-{[5-fluoro-2-(hydroxymethyl)benzene]sulfonyl}phenyl)methyl]furo[2,3-c]pyridine-2-carboxamide] | 7.17 | 7.64 | – | – |
| CCOc1cc(S(=O)(=O)c2ccc(CNC(=O)c3cc4ccncc4s3)cc2)ccc1F | 8.51 | – | 8.48 | – |
| Cc1ccc(Cl)cc1S(=O)(=O)c1ccc(CNC(=O)c2cnc3[nH]ncc3c2)cc1 [N-({4-[(5-chloro-2-methylbenzene)sulfonyl]phenyl}methyl)-1H-pyrazolo[3,4-b]pyridine-5-carboxamide] | 7.86 | – | 7.64 | – |
| Cc1cc(Cl)cc(S(=O)(=O)c2ccc(CNC(=O)c3cnc4nccn4c3)cc2)c1 | 8.64 | – | 8.32 | – |
| CCOc1ccc(S(=O)(=O)c2ccc(CNC(=O)c3cnc4[nH]ncc4c3)cc2)c(C)c1 | 7.18 | – | 6.97 | – |

| SMILES | pIC50 (A2780 cells; SRB) | pIC50 (NAMPT; NAMPT enzymatic assay) | pIC50 (NAMPT; NAMPT enzymatic reaction) | pIC50 (A2780 cells; SRB assay) |
| --- | --- | --- | --- | --- |
| O=C(NCc1ccc(S(=O)(=O)N2CC3CCC(C2)O3)cc1)c1cc2cnccc2[nH]1 [N-[(4-{8-oxa-3-azabicyclo[3.2.1]octane-3-sulfonyl}phenyl)methyl]-1H-pyrrolo[3,2-c]pyridine-2-carboxamide] | – | – | 8.10 | 8.52 |
| O=C(NCc1ccc(S(=O)(=O)c2cccc(F)c2)cc1)c1cc2ccncc2o1 [N-({4-[(3-fluorobenzene)sulfonyl]phenyl}methyl)furo[2,3-c]pyridine-2-carboxamide] | 7.84 | – | 8.24 | – |
| O=C(NCc1ccc(S(=O)(=O)N2CCCCC2)cc1)c1ccc2cnccc2n1 [N-{[4-(piperidine-1-sulfonyl)phenyl]methyl}-1,6-naphthyridine-2-carboxamide] | – | – | 7.92 | 8.00 |
| O=C(NCc1ccc(S(=O)(=O)c2cccc(F)c2)cc1)c1cnc2nccn2c1 | 7.66 | – | 8.72 | – |
| N#Cc1cccc(S(=O)(=O)c2ccc(CNC(=O)c3cc4ccncc4s3)cc2)c1 | 8.25 | – | 8.46 | – |
| COc1ccc(C(C)C)cc1S(=O)(=O)c1ccc(CNC(=O)c2cc3cnccc3[nH]2)cc1 [N-[(4-{[2-methoxy-5-(propan-2-yl)benzene]sulfonyl}phenyl)methyl]-1H-pyrrolo[3,2-c]pyridine-2-carboxamide] | – | – | 7.21 | 7.92 |
| O=C(NCc1ccc(S(=O)(=O)c2cc(F)cc(C(F)(F)F)c2)cc1)c1cc2ccncc2s1 [N-[(4-{[3-fluoro-5-(trifluoromethyl)benzene]sulfonyl}phenyl)methyl]thieno[2,3-c]pyridine-2-carboxamide] | 8.51 | 7.99 | – | – |
| O=C(NCc1ccc(S(=O)(=O)c2ccc3c(c2)OCO3)cc1)c1cc2ccncc2o1 [N-{[4-(2H-1,3-benzodioxole-5-sulfonyl)phenyl]methyl}furo[2,3-c]pyridine-2-carboxamide] | 8.06 | 8.28 | – | – |
| N#Cc1ccccc1S(=O)(=O)c1ccc(CNC(=O)c2cnc3[nH]ncc3c2)cc1 [N-({4-[(2-cyanobenzene)sulfonyl]phenyl}methyl)-1H-pyrazolo[3,4-b]pyridine-5-carboxamide] | 6.00 to 7.00 | – | 6.88 | – |
| Cn1ncc2cc(S(=O)(=O)c3ccc(CNC(=O)c4cc5ccncc5s4)cc3)ccc21 [N-{[4-(1-methyl-1H-indazole-5-sulfonyl)phenyl]methyl}thieno[2,3-c]pyridine-2-carboxamide] | 8.80 | 8.82 | – | – |
| COc1ccc(F)c(S(=O)(=O)c2ccc(CNC(=O)c3ccc4nccn4c3)cc2)c1 | 7.89 | – | 8.33 | – |
| CN(C)c1ccc(S(=O)(=O)c2ccc(CNC(=O)c3cc4cnccc4[nH]3)cc2)cn1 [N-({4-[6-(dimethylamino)pyridine-3-sulfonyl]phenyl}methyl)-1H-pyrrolo[3,2-c]pyridine-2-carboxamide] | 8.47 | 7.68 | – | – |
| O=C(NCc1ccc(S(=O)(=O)c2cccc(CN3CCCCC3)c2)cc1)c1ccc2nccn2c1 | 8.46 | 8.04 | – | – |
| O=C(NCc1ccc(S(=O)(=O)c2cccc(OC(F)(F)F)c2F)cc1)c1cc2ccncc2s1 | 7.88 | 8.01 | – | – |
| O=C(NCc1ccc(S(=O)(=O)c2ccc(F)cc2C(F)(F)F)cc1)c1cc2ccncc2s1 | 7.84 | 8.19 | – | – |
| COc1c(C(F)(F)F)cccc1S(=O)(=O)c1ccc(CNC(=O)c2ccc3nccn3c2)cc1 | 7.83 | 7.66 | – | – |
| CCN(C)c1ncc(S(=O)(=O)c2ccc(CNC(=O)c3cc4ccncc4s3)cc2)s1 [N-[(4-{2-[ethyl(methyl)amino]-1,3-thiazole-5-sulfonyl}phenyl)methyl]thieno[2,3-c]pyridine-2-carboxamide] | 8.92 | 8.54 | – | – |
| O=C(NCc1ccc(S(=O)(=O)c2cccc(-c3ccccc3)c2)cc1)c1cnc2nccn2c1 | 8.48 | – | 9.05 | – |
| COc1cccc(F)c1S(=O)(=O)c1ccc(CNC(=O)c2ccc3nccn3c2)cc1 [N-({4-[(2-fluoro-6-methoxybenzene)sulfonyl]phenyl}methyl)imidazo[1,2-a]pyridine-6-carboxamide] | 7.58 | – | 7.32 | – |
| O=C(NCc1ccc(S(=O)(=O)c2cccc(C(F)(F)F)c2)cc1)c1cc2ccncc2s1 [N-[(4-{[3-(trifluoromethyl)benzene]sulfonyl}phenyl)methyl]thieno[2,3-c]pyridine-2-carboxamide] | – | – | 8.52 | 9.00 |
| CCOc1cccc(S(=O)(=O)c2ccc(CNC(=O)c3cnc4nccn4c3)cc2)c1 | 8.17 | – | 8.68 | – |
| CCCCOc1ccc(Cl)cc1S(=O)(=O)c1ccc(CNC(=O)c2cnc3nccn3c2)cc1 | 7.20 | – | 8.43 | – |
